Laboratory results: patent publication US20260294871A1, “PHARMACEUTICAL COMBINATIONS AND COMPOSITIONS THEREOF COMPRISING ANTIBACTERIAL AGENTS” (priority 2023, published 2026)
Where two headings read alike, the source gives them in different places.

Tests used:
[1] = system: all grouped isolates from India; test: MIC by broth microdilution against all grouped isolates from India; assay type: cell-based, resistant bacterial strains
Method: (§1) In a typical study MIC tests were performed by broth microdilution in line with CLSI susceptibility testing standards. Bacterial inocula were prepared at ca. 1×10^6 CFU/mL by diluting 100-fold a 0.5 McFarland suspension in CA-MHB with TES. Microtiter plate wells containing 50 μL of antibacterial solutions at 2×the final concentrations were diluted 2-fold with 50 μL of inoculum to give a final inoculum of ca. 5×10^5 CFU/mL and desired test concentrations of antibacterial agents. Test microtiter plates were incubated according to CLSI guidelines and read visually. MIC values corresponded to the first well with no visible growth.
There was a marked improvement in antibacterial activity, compared to MEM alone, observed for the triple combinations, for MEM/AVI [4 mg/L]/EDTA [10 mM] and MEM/AVI [4 mg/L]/EDTA [20 mM], the reduction in MIC90 was 0.06 μg/mL and ≤0.002 μg/mL, respectively.

[2] = system: Enterobacterales isolates from India; test: MIC by broth microdilution against Enterobacterales; assay type: cell-based, Enterobacteriaceae
Method: as §1
The results of antibacterial activity of amikacin, Ceftazidime-avibactam, Ceftriaxone with sulbactam and EDTA, Meropenem and Meropenem with avibactam and EDTA against highly resistant strains of Enterobacteriaceae are given in Table 2.

Escherichia coli = test: MIC by broth microdilution against E. coli; assay type: cell-based
Method: as §1
The results of antibacterial activity of amikacin, Ceftazidime-avibactam, Ceftriaxone with sulbactam and EDTA, Meropenem and Meropenem with avibactam and EDTA against highly resistant strains of Escherichia coli are given in Table 3. […] There was a marked improvement in antibacterial activity, compared to MEM alone, observed for the triple combination MEM/AVI [4 mg/L]/EDTA [10 mM] with a MIC90 at 0.004 μg/mL

K. pneumoniae [3] = test: MIC by broth microdilution against Klebsiella; assay type: cell-based, Klebsiella pneumoniae
Method: as §1
The results of antibacterial activity of amikacin, Ceftazidime-avibactam, Ceftriaxone with sulbactam and EDTA, Meropenem and Meropenem with avibactam and EDTA against highly resistant strains of Klebsiella (93. 3% Mem NS) are given in Table 4.

[4] = system: Non-Enterobacteriaceae (non-fermenter isolates); test: MIC by broth microdilution against Non-Enterobacteriaceae; assay type: cell-based
Method: as §1

P. aeruginosa [5] = test: MIC by broth microdilution against P. aeruginosa; assay type: cell-based, Pseudomonas aeruginosa
Method: as §1
The results of antibacterial activity of amikacin, Ceftazidime-avibactam, Ceftriaxone with sulbactam and EDTA, Meropenem and Meropenem with avibactum and EDTA against highly resistant strains of P. aeruginosa are given in Table 5. As may be seen, the activity of the comparators was much lower although CRO/S4/E10 maximum MIC90 were much lower at ≤0.03 μg/mL.

Acinetobacter baumannii = test: MIC by broth microdilution against Acinetobacter baumannii; assay type: cell-based
Method: as §1
The results of antibacterial activity of amikacin, Ceftazidime-avibactam, Ceftriaxone with sulbactam and EDTA, Meropenem and Meropenem with avibactum and EDTA against highly resistant strains of Acinetobacter baumannii are given in Table 7.

[6] = system: Stenotrophomonas maltophilia; test: MIC by broth microdilution against Stenotrophomonas maltophilia; assay type: cell-based; conditions: highly resistant strains
Method: as §1
The results of antibacterial activity of amikacin, Ceftazidime-avibactam, Ceftriaxone with sulbactam and EDTA, Meropenem and Meropenem with avibactum and EDTA against highly resistant strains of Stenotrophomonas maltophilia are given in Table 8.

E. coli [7] = test: Frequency of Resistance (FOR) Study, E. coli; assay type: cell-based
Method: (§2) Objective: The in-vitro study was conducted to determine the frequency of resistance in 8 characterized isolates.
(§3) • Isolates: 8 isolates-E. coli (3), K. pneumoniae (2), A. baumannii (1) and P. aeruginosa (2) • Compound tested: Meropenem; Meropenem Avibactam (4); Meropenem EDTA (10 mM); Meropenem Avibactam (4) EDTA (10 mM) • Antibiotic Concentration used: […]

P. aeruginosa [8] = test: Frequency of Resistance (FOR) Study, P. aeruginosa; assay type: cell-based; note: key: TMTC: To more to count
Method: as §2, §3

K. pneumoniae [9] = test: MIC of Time Kill Assay isolates, K. pneumoniae; assay type: cell-based; conditions: Klebsiella pneumoniae; TKA isolates
Method: Objective: The in-vitro Time Kill Assay study was conducted to determine the log reduction in 5 characterised MDR isolates.
• Isolates: 5 isolates-E. coli (3), K. pneumoniae (2) • Compound tested: Meropenem; Meropenem Avibactam (4); Meropenem EDTA (10 mM); Meropenem Avibactam (4) EDTA (10 mM) • 1 log—90% killing, 2 log 99% killing and 3 log 99.9% killing. Bactericidal: 3 log reduction (99.9% killing) • MIC: […]

E. coli [10] = conditions: cited from earlier work

## C[C@@H](O)[C@H]1C(=O)N2C(C(=O)O)=C(S[C@@H]3CN[C@H](C(=O)N(C)C)C3)[C@H](C)[C@H]12 [Meropenem, (4R,5S,6S)-3-(((3S,5S)-5-(dimethylcarbamoyl)pyrrolidin-3-yl)thio)-6-((R)-1-hydroxyethyl)-4-methyl-7-oxo-1-azabicyclo[3.2.0]hept-2-ene-2-carboxylic acid]
[1]
  MIC50: > 32 µg/mL
  MIC90: > 32 µg/mL
[1]; MEM-NS isolates (n=534)
  MIC90: > 32 µg/mL
[1]; all grouped isolates (606)
  MIC50: >32 µg/mL
  MIC90: > 32 µg/mL
[2]
  MIC50: > 32 µg/mL
  MIC90: > 32 µg/mL
[2]; 250 out of 301
  isolates resistant to meropenem (MEM NS): 82.7%
[2]; MEM-NS isolates (n=250)
  MIC50: > 32 µg/mL
  MIC90: > 32 µg/mL
[2]; n=301
  MIC50: >32 µg/mL
  MIC90: >32 µg/mL
Escherichia coli; Escherichia coli, highly resistant strains, read-out: MIC50
  MIC50: > 32 µg/mL
Escherichia coli; Escherichia coli, highly resistant strains, read-out: MIC90
  MIC90: > 32 µg/mL
Escherichia coli; MEM-NS isolates (n=105)
  MIC50: > 32 µg/mL
  MIC90: > 32 µg/mL
Escherichia coli; highly resistant strains
  MIC50: >32 µg/mL
  MIC90: >32 µg/mL
Escherichia coli; n=105
  MEM-NS isolates: 88.2%
K. pneumoniae [3]; Klebsiella pneumoniae, MEM-NS isolates (n=112), read-out: MIC50
  MIC50: > 32 µg/mL
K. pneumoniae [3]; Klebsiella pneumoniae, highly resistant strains, read-out: MIC90
  MIC90: > 32 µg/mL
K. pneumoniae [3]; MEM-NS isolates (n=112)
  MIC90: > 32 µg/mL
K. pneumoniae [3]; highly resistant strains
  MIC50: >32 µg/mL
  MIC90: >32 µg/mL
K. pneumoniae [3]; n=112, listed as MEM
  MEM-NS isolates: 93.3%
[4]
  MIC50: > 32 µg/mL
  MIC90: > 32 µg/mL
[4]; highly resistant strains
  MIC50: >32 µg/mL
  MIC90: >32 µg/mL
[4]; highly resistant strains, listed as MEM
  MIC90: > 32 µg/mL
[4]; n=284
  MEM-NS isolates: 88.9%
P. aeruginosa [5]; MEM-NS isolates (n=120)
  MIC90: > 32 µg/mL
P. aeruginosa [5]; Pseudomonas aeruginosa, highly resistant strains
  MIC50: > 32 µg/mL
P. aeruginosa [5]; Pseudomonas aeruginosa, highly resistant strains, read-out: MIC90
  MIC90: > 32 µg/mL
P. aeruginosa [5]; highly resistant strains
  MIC90: >32 µg/mL
P. aeruginosa [5]; n=120
  MEM-NS isolates: 92.7%
Acinetobacter baumannii; Acinetobacter baumannii
  MIC90: > 32 µg/mL
Acinetobacter baumannii; Acinetobacter baumannii, highly resistant strains
  MIC50: > 32 µg/mL
Acinetobacter baumannii; MEM-NS isolates (n=163)
  MIC90: > 32 µg/mL
Acinetobacter baumannii; highly resistant strains
  MIC90: >32 µg/mL
Acinetobacter baumannii; n=163
  MEM-NS isolates: 98.2%
[6]; Stenotrophomonas maltophilia, read-out: MIC50
  MIC50: > 32 µg/mL
[6]; Stenotrophomonas maltophilia, read-out: MIC90
  MIC90: > 32 µg/mL
[6]
  MIC50: >32 µg/mL
  MIC90: >32 µg/mL
E. coli [7]; strain 1 - E. coli, ATB concentration 4x
  count, 24 H of Incubation: 0
E. coli [7]; strain 1 - E. coli, ATB concentration 8x
  count, 24 H of Incubation: 0
E. coli [7]; strain 1 - E. coli, ATB concentration 16x
  count, 24 H of Incubation: 0
E. coli [7]; strain 4 - E. coli, ATB concentration 4x
  count, 24 H of Incubation: TMTC
E. coli [7]; strain 4 - E. coli, ATB concentration 8x
  count, 24 H of Incubation: TMTC
E. coli [7]; strain 4 - E. coli, ATB concentration 16x
  count, 24 H of Incubation: TMTC
E. coli [7]; strain 5 - E. coli, ATB concentration 4x
  count, 24 H of Incubation: 0
E. coli [7]; strain 5 - E. coli, ATB concentration 8x
  count, 24 H of Incubation: 0
E. coli [7]; strain 5 - E. coli, ATB concentration 16x
  count, 24 H of Incubation: 0
P. aeruginosa [8]; strain 2 - P. aeruginosa, ATB concentration 4x
  count, 24 H of Incubation: TMTC
P. aeruginosa [8]; strain 2 - P. aeruginosa, ATB concentration 8x
  count, 24 H of Incubation: TMTC
P. aeruginosa [8]; strain 2 - P. aeruginosa, ATB concentration 16x
  count, 24 H of Incubation: TMTC
P. aeruginosa [8]; strain 3 - P. aeruginosa, ATB concentration 4x
  count, 24 H of Incubation: TMTC
P. aeruginosa [8]; strain 3 - P. aeruginosa, ATB concentration 8x
  count, 24 H of Incubation: TMTC
P. aeruginosa [8]; strain 3 - P. aeruginosa, ATB concentration 16x
  count, 24 H of Incubation: TMTC
K. pneumoniae [9]
  MIC: > 32 µg/mL
E. coli [10]
  CLSI Range of MIC: 0.008 to 0.06 µg/mL
